Measurements published in patent US20250034264A1, “REGULATING T CELL IMMUNE RESPONSE THROUGH IGF-I RECEPTOR (IGF-1R)” (The Regents of the University of Michigan, priority 2021, published 2025).

Experiments:
[1] = test system: fibrocytes; test: mRNA stability with DRB; type: cell-based, human; conditions: 50 μg/mL, up to 12 hrs
Procedure: FIGS. 5A-5C show the effects of teprotumumab on basal and bTSH-induced gene promoter activities in GD-OF compared to fibrocytes, gene transcription and mRNA stabilities of MHC II, CD80, CD86, PD-L1 in fibrocytes. Confluent GD-OF and fibrocyte monolayers were treated with human Isotype IgG (5 μg/ml) or teprotumumab (50 μg/mL) for 3 d and transfected with a target gene promoter fragment (MHC-2, CD80, CD86, PD-L1, or negative control clone PG04). Following a 3-4 d incubation, they were treated without or with bTSH (5 mU/mL) for 2 h. Monolayers were rinsed, processed, and analyzed using the Secrete-Pair Dual Luminescence Assay Kit for promoter activity according to manufacturer's instructions (FIG. 5A). Values were normalized to internal controls. Fibrocyte monolayers were cross-linked with 16% formaldehyde isolated chromatin fragment and immunoprecipitated with anti-human HLA-DPB1, anti-CD80, anti-CD86, or anti-PD-L1 using the Pierce™ Agarose Chip Kit. Isolated DNA was subjected to RT-PCR using EpiTect ChIP qPCR Primer Assay (Qiagen) for each target (FIG. 5B). Each datum point represents values from three independent determinations from one of three experiments performed. *, p<0.05; ** p<0.01; and ***p<0.001. Fibrocyte cultures were pretreated with bTSH for 6 h. […] RNA was extracted, reverse transcribed, and subjected to real-time quantitative PCR for each target (FIG. 5C). […]

[2] = test system: purified, isolated cultured CD3+CD4+ T cells; test: IL-17A and INFγ in purified, isolated cultured T cells (flow cytometry); type: cell-based, human
Procedure: Invariably, a small population of tightly adherent T cells were found in the fibrocyte cultures, consistent with the previous findings. Culture viability was routinely verified to be >90%. CD4^+ T cells were enriched using the CD4 isolation cocktail (Cat #0.130-096-533, Miltenyi Biotec, San Diego, CA) followed by negative selection using a magnetic column (Cat #0.130-042-401) according to manufacturer's protocol. Fibrocytes and isolated T cells were cultured and remained untreated or were incubated with human IgG isotype control (5 μg/ml) or teprotumumab (50 μg/mL) for 7 to 9 days. Single cell suspensions were stained with anti-human CD4, CD3, CD34, MHC-2, CD80, CD86, and PD-L1 (BD Biosciences) for 30 min, rinsed and fixed with CytoPerm/CytoFix (BD). They were then stained with anti-human INFγ and IL-17A for 20 min, rinsed, and subjected to the flow cytometry analysis. Gated CD34^+CXCR4^+ fibrocytes and CD4^+CD3^+ T cells were analyzed using quadrant settings based on negative isotype staining.
In vitro studies of CD34^+ fibrocytes and T cells PBMC and GD-OF monolayers were treated in vitro with human IgG isotype control (5 μg/ml), teprotumumab (50 μg/mL), H7 (5 μg/mL), linsitinib (1 μM), bTSH (5 mIU/mL), M22 (1 μg/mL), or IGF-1 (10 nM) for the intervals indicted in the figure legends in a 37° C., 5% CO2, humidified incubator until confluent. Brefeldin A (0.66 μl/ml), (Golgi Stop™, BD Biosciences), phorbol 12-myristate 13-acetate (PMA) (50 ng/ml) and ionomycin (1 μg/mL) were added for 5 h. Cells were rinsed with flow cytometry buffer (1×PBS, 0.5% BSA, 0.1% sodium azide) and stained with the relevant monoclonal antibodies.

[3] = test system: circulating CD3+CD4+ T cells; test: Phase 2 TAO trial: INFγ and IL-17A in circulating T cells (flow cytometry); type: in vivo, human; conditions: TAO patients, 20 mg/Kg, 24-week treatment
Procedure: Studies of circulating CD34^+ fibrocytes and T cells PBMCs from patients with active, moderate to severe TAO enrolled in a phase 2 trial for teprotumumab were cryopreserved immediately after collection. Venous blood sampling occurred at baseline and at week 24, following 8 infusions at 3 weekly intervals. The post-treatment sample was obtained 3 weeks after the final infusion of active drug or placebo. Samples were thawed and incubated with 10% knockout serum replacement medium for 1h and stained. Rinsed samples were subjected to FACS analysis with a Calibur flow cytometer (BD). Viable cells were gated on the basis of forward light scatter. All samples were analyzed using quadrant settings based on negative staining with isotype control antibodies. Mean fluorescent intensity (MFI) was calculated as the ratio of mean sample to isotype control fluorescence. Data were analyzed with FCS Express software (De Novo Software, Ontario, CA).

teprotumumab
stabilities of mRNA encoding MHC II, CD80, CD86, PD-L1 [1]: accelerated their decline
INFγ MFI ([2]; 50 μg/mL, 9 d, control 10.23±0.99): 10.32±0.89
IL-17A MFI ([2]; 50 μg/mL, 9 d, control isotype MFI 12.69±0.19): 12.69±0.31
effect on cytokine (IL-17A, INFγ) expression levels ([2]; purified T cells without fibrocytes): no such effects
reduction of IL-17A expression level in CD4+ T cells [3]: 47%
reduction of INFγ expression level in CD4+ T cells [3]: 41%
